Reference: ChEMBL document CHEMBL1201861, “Genomics of Drug Sensitity in Cancer screening data, Wellcome Trust Sanger Institute”

How the values were obtained:
Assay in all cases: cells
SNU1 = type: functional, cell-based, Homo sapiens; settings: Homo sapiens, SNU1;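 further: growth inhibition of human NCI-SNU-1 cells, measured with a cell viability assay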
Description: SANGER: Inhibition of human NCI-SNU-1 cell growth in a cell viability assay.

BE-13 = type: functional, cell-based, Homo sapiens; settings: Homo sapiens, BE-13;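 further: growth inhibition of human BE-13 cells, measured with a cell viability assay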
Description: SANGER: Inhibition of human BE-13 cell growth in a cell viability assay.

TE-1 = type: functional, cell-based, Homo sapiens; settings: Homo sapiens, TE-1;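 further: growth inhibition of the human TE-1 cell line, read out with a cell viability assay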
Description: SANGER: Inhibition of human TE-1 cell growth in a cell viability assay.

EW-3 = type: functional, cell-based, Homo sapiens; settings: Homo sapiens, EW-3;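 further: cell viability assay read-out, IC50 reflects inhibition of growth of the EW-3 cells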
Description: SANGER: Inhibition of human EW-3 cell growth in a cell viability assay.

KP-N-YS = type: functional, cell-based, Homo sapiens; settings: Homo sapiens, KP-N-YS;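 further: cell viability assay measuring inhibition of cell line growth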
Description: SANGER: Inhibition of human KP-N-YS cell growth in a cell viability assay.

MEG-01 = type: functional, cell-based, Homo sapiens; settings: Homo sapiens, MEG-01;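 further: growth inhibition of MEG-01 cells, read out by a cell viability assay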
Description: SANGER: Inhibition of human MEG-01 cell growth in a cell viability assay.

BT-474 = type: functional, cell-based, Homo sapiens; settings: Homo sapiens, BT-474
Description: SANGER: Inhibition of human BT-474 cell growth in a cell viability assay.

MFM-223 = type: functional, cell-based, Homo sapiens; settings: Homo sapiens, MFM-223
Description: SANGER: Inhibition of human MFM-223 cell growth in a cell viability assay.

COR-L88 = type: functional, cell-based, Homo sapiens; settings: Homo sapiens, COR-L88;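 further: growth inhibition of COR-L88 cells, read out with a cell viability assay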
Description: SANGER: Inhibition of human COR-L88 cell growth in a cell viability assay.

MZ2-MEL = type: functional, cell-based, Homo sapiens; settings: Homo sapiens, MZ2-MEL;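 further: growth inhibition of MZ2-MEL cells read out with a cell viability assay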
Description: SANGER: Inhibition of human MZ2-MEL cell growth in a cell viability assay.

LAN-6 = type: functional, cell-based, Homo sapiens; settings: Homo sapiens, LAN-6;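 further: growth inhibition of LAN-6 cells, determined with a cell viability assay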
Description: SANGER: Inhibition of human LAN-6 cell growth in a cell viability assay.

D-502MG = type: functional, cell-based, Homo sapiens; settings: Homo sapiens, D-502MG
Description: SANGER: Inhibition of human D-502MG cell growth in a cell viability assay.

DMS-114 = type: functional, cell-based, Homo sapiens; settings: Homo sapiens, DMS-114
JAR = type: functional, cell-based, Homo sapiens; settings: Homo sapiens, JAR;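 further: growth inhibition of human JAR cells determined with a cell viability assay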
Description: SANGER: Inhibition of human JAR cell growth in a cell viability assay.

HT = type: functional, cell-based, Homo sapiens; settings: Homo sapiens, HT
Description: SANGER: Inhibition of human HT cell growth in a cell viability assay.

SK-NEP-1 = type: functional, cell-based, Homo sapiens; settings: Homo sapiens, SK-NEP-1;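 further: growth inhibition of human SK-NEP-1 cells, read out by a cell viability assay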
Description: SANGER: Inhibition of human SK-NEP-1 cell growth in a cell viability assay.

OMC-1 = type: functional, cell-based, Homo sapiens; settings: Homo sapiens, OMC-1;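 further: growth inhibition of the OMC-1 cell line, measured by a cell viability assay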
Description: SANGER: Inhibition of human OMC-1 cell growth in a cell viability assay.

SK-UT-1 = type: functional, cell-based, Homo sapiens; settings: Homo sapiens, SK-UT-1;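 further: growth inhibition of SK-UT-1 cells, measured by a cell viability assay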
Description: SANGER: Inhibition of human SK-UT-1 cell growth in a cell viability assay.

U-87 MG = type: functional, cell-based, Homo sapiens, U-87MG ATCC; settings: Homo sapiens, U-87 MG;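 further: growth inhibition of the cells measured with a viability assay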
Description: SANGER: Inhibition of human U-87-MG cell growth in a cell viability assay.

NKM-1 = type: functional, cell-based, Homo sapiens; settings: Homo sapiens, NKM-1;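 further: growth inhibition of NKM-1 cells, read out with a cell viability assay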
Description: SANGER: Inhibition of human NKM-1 cell growth in a cell viability assay.

SW872 = type: functional, cell-based, Homo sapiens; settings: Homo sapiens, SW872;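 further: growth inhibition of SW872 cells, read out by a viability assay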
Description: SANGER: Inhibition of human SW872 cell growth in a cell viability assay.

IST-SL1 = type: functional, cell-based, Homo sapiens; settings: Homo sapiens, IST-SL1;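 further: growth inhibition of human IST-SL1 cells, read out with a cell viability assay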
Description: SANGER: Inhibition of human IST-SL1 cell growth in a cell viability assay.

L-363 = type: functional, cell-based, Homo sapiens; settings: Homo sapiens, L-363
Description: SANGER: Inhibition of human L-363 cell growth in a cell viability assay.

DJM-1 = type: functional, cell-based, Homo sapiens; settings: Homo sapiens, DJM-1;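 further: growth inhibition of human DJM-1 cells, read out by a cell viability assay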
Description: SANGER: Inhibition of human DJM-1 cell growth in a cell viability assay.

BV-173 = type: functional, cell-based, Homo sapiens; settings: Homo sapiens, BV-173
Description: SANGER: Inhibition of human BV-173 cell growth in a cell viability assay.

OCI-AML2 = type: functional, cell-based, Homo sapiens; settings: Homo sapiens, OCI-AML2;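 further: growth inhibition of OCI-AML2 cells, read out with a cell viability assay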
Description: SANGER: Inhibition of human OCI-AML2 cell growth in a cell viability assay.

no-11 = type: functional, cell-based, Homo sapiens; settings: Homo sapiens;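 further: growth inhibition of human NO-11 cells, read out with a cell viability assay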
Description: SANGER: Inhibition of human no-11 cell growth in a cell viability assay.

COLO-829 = type: functional, cell-based, Homo sapiens; settings: Homo sapiens, COLO-829
Description: SANGER: Inhibition of human COLO-829 cell growth in a cell viability assay.

DB = type: functional, cell-based, Homo sapiens; settings: Homo sapiens, DB
Description: SANGER: Inhibition of human DB cell growth in a cell viability assay.

J-RT3-T3-5 = type: functional, cell-based, Homo sapiens; settings: Homo sapiens, J-RT3-T3-5;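 further: cell viability assay measuring growth inhibition of human J-RT3-T3-5 cells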
Description: SANGER: Inhibition of human J-RT3-T3-5 cell growth in a cell viability assay.

RCC10RGB = type: functional, cell-based, Homo sapiens; settings: Homo sapiens, RCC10RGB;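 further: growth inhibition of human RCC10RGB cells, read out by a cell viability assay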
Description: SANGER: Inhibition of human RCC10RGB cell growth in a cell viability assay.

TE-6 = type: functional, cell-based, Homo sapiens; settings: Homo sapiens, TE-6;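 further: growth inhibition of TE-6 cells, read out with a cell viability assay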
Description: SANGER: Inhibition of human TE-6 cell growth in a cell viability assay.

HCC2218 = type: functional, cell-based, Homo sapiens; settings: Homo sapiens, HCC2218;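 further: cell viability assay read-out, with IC50 given as the concentration that inhibits growth of the cell line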
Description: SANGER: Inhibition of human HCC2218 cell growth in a cell viability assay.

SCC-15 = type: functional, cell-based, Homo sapiens; settings: Homo sapiens, SCC-15;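 further: growth inhibition of SCC-15 cells, read out with a cell viability assay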
Description: SANGER: Inhibition of human SCC-15 cell growth in a cell viability assay.

MOLT-16 = type: functional, cell-based, Homo sapiens; settings: Homo sapiens, MOLT-16;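 further: growth inhibition of human MOLT-16 cells, read out with a cell viability assay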
Description: SANGER: Inhibition of human MOLT-16 cell growth in a cell viability assay.

LOX IMVI = type: functional, cell-based, Homo sapiens; settings: Homo sapiens, LOX IMVI
Description: SANGER: Inhibition of human LOXIMVI cell growth in a cell viability assay.

ML-2 = type: functional, cell-based, Homo sapiens; settings: Homo sapiens, ML-2;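 further: growth inhibition of ML-2 cells, measured with a cell viability readout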
Description: SANGER: Inhibition of human ML-2 cell growth in a cell viability assay.

LB771-HNC = type: functional, cell-based; settings: Homo sapiens;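 further: growth inhibition of LB771-HNC human cells, read out with a cell viability assay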
Description: SANGER: Inhibition of human LB771-HNC cell growth in a cell viability assay.

NCI-H720 = type: functional, cell-based, Homo sapiens; settings: Homo sapiens, NCI-H720;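 further: growth inhibition of human NCI-H720 cells determined by a cell viability assay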
Description: SANGER: Inhibition of human NCI-H720 cell growth in a cell viability assay.

ETK-1 = type: functional, cell-based, Homo sapiens; settings: Homo sapiens, ETK-1;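 further: growth inhibition of human ETK-1 cells, read out with a cell viability assay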
Description: SANGER: Inhibition of human ETK-1 cell growth in a cell viability assay.

EW-13 = type: functional, cell-based, Homo sapiens; settings: Homo sapiens, EW-13; read-out: IC50;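 further: growth inhibition of EW-13 cells, read out with a cell viability assay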
Description: SANGER: Inhibition of human EW-13 cell growth in a cell viability assay.

NCI-H1395 = type: functional, cell-based, Homo sapiens; settings: Homo sapiens, NCI-H1395;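 further: cell viability assay read-out quantifying reduced proliferation of human NCI-H1395 cells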
Description: SANGER: Inhibition of human NCI-H1395 cell growth in a cell viability assay.

HAL-01 = type: functional, cell-based, Homo sapiens; settings: Homo sapiens, HAL-01;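 further: growth inhibition of human HAL-01 cells, read out with a cell viability assay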
Description: SANGER: Inhibition of human HAL-01 cell growth in a cell viability assay.

MV4-11 = type: functional, cell-based, Homo sapiens, MV-4-11; settings: Homo sapiens, MV4-11;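 further: cell viability readout measuring growth inhibition of human MV-4-11 cells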
Description: SANGER: Inhibition of human MV-4-11 cell growth in a cell viability assay.

A704 = type: functional, cell-based; settings: Homo sapiens;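 further: growth inhibition of human A704 cells, read out with a cell viability assay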
Description: SANGER: Inhibition of human A704 cell growth in a cell viability assay.

KU812 cell line = type: functional, cell-based, Homo sapiens; settings: Homo sapiens, KU812;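 further: growth inhibition of KU812 cells, read out with a cell viability assay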
Description: SANGER: Inhibition of human KU812 cell growth in a cell viability assay.

BB65-RCC = type: functional, cell-based, Homo sapiens; settings: Homo sapiens, BB65-RCC;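 further: growth inhibition of the cell line, measured with a cell viability assay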
Description: SANGER: Inhibition of human BB65-RCC cell growth in a cell viability assay.

KE-37 = type: functional, cell-based, Homo sapiens; settings: Homo sapiens, KE-37;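 further: growth inhibition of KE-37 cells, read out with a cell viability assay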
Description: SANGER: Inhibition of human KE-37 cell growth in a cell viability assay.

GI-1 = type: functional, cell-based, Homo sapiens; settings: Homo sapiens, GI-1;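 further: growth inhibition of human GI-1 cells, measured with a cell viability readout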
Description: SANGER: Inhibition of human GI-1 cell growth in a cell viability assay.

Measured: IC50

NC(=O)c1ccc(N(C(N)=O)c2c(F)cccc2F)nc1-c1ccc(F)cc1F [VX-702]
114 nM: BV-173
666 nM: EW-3
497 nM: HCC2218
16.8 nM: NCI-H720
227 nM: ML-2
125 nM: KU812 cell line
335 nM: COR-L88
> 2000 nM: SNU1 | BE-13 | TE-1 | KP-N-YS | MEG-01 | BT-474 | MFM-223 | MZ2-MEL | LAN-6 | D-502MG | DMS-114 | JAR | HT | SK-NEP-1 | OMC-1 | SK-UT-1 | U-87 MG | NKM-1 | SW872 | IST-SL1 | L-363 | DJM-1 | OCI-AML2 | no-11 | COLO-829 | DB | J-RT3-T3-5 | RCC10RGB | TE-6 | SCC-15 | MOLT-16 | LOX IMVI | LB771-HNC | ETK-1 | EW-13 | NCI-H1395 | HAL-01 | MV4-11 | A704 | BB65-RCC | KE-37 | GI-1
